In patent US6569882B2, “Bis-sulfonamide hydroxyethyl-amino retroviral protease inhibitors” (G. D. Searle & Co., priority 1995, dated 2003):
Read-outs that look alike come from different tables or passages of the source.

Assays:
HIV protease = molecular target: T1, HIV protease (Human immunodeficiency virus type 1 group M subtype B, UniProt P04585); experiment: HIV protease enzyme assay (fluorescence, peptide substrate); assay type: biochemical; conditions: concentration reducing enzyme activity by 50%; substrate 80 μM, enzyme 12.3 nanomolar, pH 6.4
T1 construct: HIV protease is diluted in the assay buffer to a final enzyme concentration of 12.3 nanomolar, based on a molecular weight of 10,780
Excerpt: The compounds of the present invention are effective HIV protease inhibitors. Utilizing an enzyme assay as described below, the compounds set forth in the examples herein disclosed inhibited the HIV enzyme. The preferred compounds of the present invention and their calculated IC50 (inhibiting concentration 50%, i.e., the concentration at which the inhibitor compound reduces enzyme activity by 50%) values are shown in Table 16. The enzyme method is described below. The substrate is 2-Ile-Nle-Phe(p-NO2)-Gln-ArgNH2. The positive control is MVT-101 (Miller, M. et al, Science, 246, 1149 (1989)] The assay conditions are as follows:
20 mM sodium phosphate, pH 6.4
The above described substrate is dissolved in DMSO, then diluted 10 fold in assay buffer. Final substrate concentration in the assay is 80 μM.
HIV protease is diluted in the assay buffer to a final enzyme concentration of 12.3 nanomolar, based on a molecular weight of 10,780.
The final concentration of DMSO is 14% and the final concentration of glycerol is 18%. The test compound is dissolved in DMSO and diluted in DMSO to 10× the test concentration; 10 μl of the enzyme preparation is added, the materials mixed and then the mixture is incubated at ambient temperature for 15 minutes. The enzyme reaction is initiated by the addition of 40 μl of substrate. The increase in fluorescence is monitored at 4 time points (0, 8, 16 and 24 minutes) at ambient temperature. Each assay is carried out in duplicate wells.

HIV-1 in CEM cells = experiment: CEM cell assay: HIV inhibition in acutely infected cells, tetrazolium (MTT) colorimetric; assay type: cell-based; conditions: Human immunodeficiency virus 1, CCRF-CEM, 168 h
Method: The effectiveness of various compounds were determined in the above-described enzyme assay and in a CEM cell assay.
The HIV inhibition assay method of acutely infected cells is an automated tetrazolium based colorimetric assay essentially that reported by Pauwles et al, J. Virol. Methods, 20, 309-321 (1988). Assays were performed in 96-well tissue culture plates. CEM cells, a CD4+ cell line, were grown in RPMI-1640 medium (Gibco) supplemented with a 10% fetal calf serum and were then treated with polybrene (2 μg/ml). An 80 μl volume of medium containing 1×10^4 cells was dispensed into each well of the tissue culture plate. To each well was added a 100 μl volume of test compound dissolved in tissue culture medium (or medium without test compound as a control) to achieve the desired final concentration and the cells were incubated at 37° C. for 1 hour. A frozen culture of HIV-1 was diluted in culture medium to a concentration of 5×10^4 TCID50 per ml (TCID50=the dose of virus that infects 50% of cells in tissue culture), and a 20 μL volume of the virus sample (containing 1000 TCID50 of virus) was added to wells containing test compound and to wells containing only medium (infected control cells). Several wells received culture medium without virus (uninfected control cells). Likewise, the intrinsic toxicity of the test compound was determined by adding medium without virus to several wells containing test compound. In summary, the tissue culture plates contained the following experiments:
In experiments 2 and 4 the final concentrations of test compounds were 1, 10, 100 and 500 μg/ml. Either azidothymidine (AZT) or dideoxyinosine (ddI) was included as a positive drug control. […] DMSO was added to all control wells at an appropriate concentration.
Following the addition of virus, cells were incubated at 37° C. in a humidified, 5% CO2 atmosphere for 7 days. Test compounds could be added on days 0, 2 and 5 if desired. On day 7, post-infection, the cells in each well were resuspended and a 100 μl sample of each cell suspension was removed for assay. A 20 μL volume of a 5 mg/ml solution of 3-(4,5-dimethylthiazol-2-yl)-2,5-diphenyltetrazolium bromide (MTT) was added to each 100 μL cell suspension, and the cells were incubated for 4 hours at […] in a 5% CO2 environment. […] To each sample was added 100 μl of 10% sodium dodecylsulfate in 0.01 N HCl to lyse the cells, and samples were incubated overnight. The absorbance at 590 nm was determined for each sample using a Molecular Devices microplate reader. Absorbance values for each set of wells is compared to assess viral control infection, uninfected control cell response as well as test compound by cytotoxicity and antiviral efficacy.

[1] = CEM cells acutely infected with HIV-1, 7 days, MTT readout, read-out: EC50

Compound | IC50 (HIV protease) [nM] | EC50 (HIV-1 in CEM cells; [1]) [nM] | EC50 (HIV-1 in CEM cells) [nM]
CC(C)CN(C[C@@H](O)[C@H](Cc1ccccc1)NC(=O)[C@H](C)CS(=O)(=O)N1CCN(Cc2ccccn2)CC1)S(=O)(=O)c1ccc2c(c1)OCO2 [Example 10] | 10 | 56 | –
COc1ccc(S(=O)(=O)N(CC(C)C)C[C@@H](O)[C@H](Cc2ccccc2)NC(=O)[C@H](C)CS(=O)(=O)N(C)C)cc1 [Example 4] | 4 | – | 15
COc1ccc(S(=O)(=O)N(CC(C)C)C[C@@H](O)[C@H](Cc2ccccc2)NC(=O)[C@H](C)CS(N)(=O)=O)cc1 [Example 3] | 6 | – | 40
CC(C)CN(C[C@@H](O)[C@H](Cc1ccccc1)NC(=O)[C@H](C)CS(=O)(=O)N1CCCC1)S(=O)(=O)c1ccc2c(c1)OCO2 [Example 13] | 6 | 176 | –
CC(C)CN(C[C@@H](O)[C@H](Cc1ccccc1)NC(=O)[C@H](C)CS(=O)(=O)N1CCN(Cc2cccnc2)CC1)S(=O)(=O)c1ccc2c(c1)OCO2 [Example 11] | 9 | – | –
CC(C)CN(C[C@@H](O)[C@H](Cc1ccccc1)NC(=O)[C@H](C)CS(=O)(=O)N(C)Cc1ccccc1)S(=O)(=O)c1ccc2c(c1)OCO2 [Example 15] | 4 | – | –
COc1ccc(S(=O)(=O)N(CC(C)C)C[C@@H](O)[C@H](Cc2ccccc2)NC(=O)[C@H](C)CS(=O)(=O)N2CCN(C)CC2)cc1 [Example 2] | 8 | – | 77
CC(C)CN(C[C@@H](O)[C@H](Cc1ccccc1)NC(=O)[C@H](C)CS(=O)(=O)N1CCN(Cc2ccncc2)CC1)S(=O)(=O)c1ccc2c(c1)OCO2 [Example 12] | 9 | 42 | –
CC(C)CN(C[C@@H](O)[C@H](Cc1ccccc1)NC(=O)[C@H](C)CS(=O)(=O)N1CCN(Cc2ccccc2)CC1)S(=O)(=O)c1ccc2c(c1)OCO2 [Example 9] | 6 | 84 | –
COc1ccc(S(=O)(=O)N(CC(C)C)C[C@@H](O)[C@H](Cc2ccccc2)NC(=O)[C@H](C)CS(=O)(=O)N2CCCCC2)cc1 [Example 5] | 13 | – | 210
COc1ccc(S(=O)(=O)N(CC(C)C)C[C@@H](O)[C@H](Cc2ccccc2)NC(=O)[C@H](C)CS(=O)(=O)N(Cc2ccccc2)C(c2ccccc2)c2ccccc2)cc1 [Example 6] | 4 | – | –
CC(C)CN(C[C@@H](O)[C@H](Cc1ccccc1)NC(=O)[C@H](C)CS(=O)(=O)N(C)c1ccccc1)S(=O)(=O)c1ccc2c(c1)OCO2 [Example 14] | 4 | 85 | –
CC(C)CN(C[C@@H](O)[C@H](Cc1ccccc1)NC(=O)[C@H](C)CS(=O)(=O)N1CCNCC1)S(=O)(=O)c1ccc2c(c1)OCO2 [Example 8] | 9 | 415 | –
COc1ccc(S(=O)(=O)N(CC(C)C)C[C@@H](O)[C@H](Cc2ccccc2)NC(=O)[C@H](C)CS(=O)(=O)NCc2ccccc2)cc1 [Example 7] | 3 | – | 32
COc1ccc(S(=O)(=O)N(CC(C)C)C[C@@H](O)[C@H](Cc2ccccc2)NC(=O)[C@H](C)CS(=O)(=O)N2CCOCC2)cc1 [Example 1] | 10 | 32 | –
